Marks after values point to notes of the source that are not given here.

In the assay the test system is Escherichia coli strain K12 (ATCC 25253). The experiment in a line: Inhibitive evaluation: hydrogen sulfide generation in synthetic waste water media inoculated with E. coli. The class given is cell-based. The following applies: for H2S in ppm vs. contact times, 24 Hours: 24 hours contact time; for H2S in ppm vs. contact times, 48 Hours: 48 hours contact time; for H2S in ppm vs. contact times, 72 Hours: 72 hours contact time. The protocol:
An experiment was conducted to evaluate the effectiveness of recreational vehicle (Black) waste water tank deodorizer in preventing […] degradation processes that result in unpleasant odors. The effectiveness of the tank deodorizer was evaluated through the inhibition of growth using an E. Coli within a synthetic waste water media. This comparison of the respective products inhibition was over selected time periods from 5 to 7 days.
500 grams total of synthetic soil media was prepared having the following ingredients:
RV biodegradable toilet paper (small pieces) . . . 5.0 g • With the exception of the oatmeal and toilet paper, the above ingredients were mixed together and heated to 55° C. with constant mixing for 15 to 20 minutes. The oatmeal and toilet paper were then added and thoroughly mixed in. Mixture is allowed to cool to room temperature, then transferred to the waste water tank/digester test vessel.
Escherichia coli strain K12 (ATCC 25253) was employed.
1. To build up the count of microbes, using a 48-hour Nutrient Broth culture incubated at 37° C. of the E. Coli or other selected organism, the culture must be on at least the fourth consecutive 24-hour transfer before using. Have one tube of the 48-hour culture available for each of the test vessels.
2. Before inoculating the surrogate black waste water tank test vessel containing the synthetic soil media, the number of organisms being utilized was verified to achieve a range no less than a count of log^8 per milliliter. Serial dilutions of the E. coli culture were prepared as follows:
a.) Tube • #1. 1.0 ml organism culture+9.0 ml Nutrient Broth=1/10 • #2. 1.0 ml tube #1 dilution+9.0 ml Nutrient Broth=1/10^−2 • #3. 1.0 ml tube #2 dilution+9.0 ml Nutrient Broth=1/10^−3 • #4. 1.0 ml tube #3 dilution+9.0 ml Nutrient Broth=1/10^−4 • #5. 1.0 ml tube #4 dilution+9.0 ml Nutrient Broth=1/10^−5 • #6. 1.0 ml tube #5 dilution+9.0 ml Nutrient Broth=1/10^−6 • #7. 1.0 ml tube #6 dilution+9.0 ml Nutrient Broth=1/10^−7 • #8. 1.0 ml tube #7 dilution+9.0 ml Nutrient Broth=1/10^−8 • *Note: each dilution was thoroughly mixed before transferring to the next tube. b.) Each dilution was plated by the pour plate method. 1.0 ml of dilution was plated with 10.0 ml TGY pour plate agar. Plates were incubated at 37° C. for 48 hrs before reading for enumeration.
3. Specified amounts of test subject deodorizer from the chart below were added to the test vessel containing the 500 grams of the synthetic soil media and mix thoroughly to assure uniform distribution.
4. 5.0 ml of the E. coli culture from step #1 were added to the test vessel and thoroughly mixed to assure uniform distribution. This brought the organism count to a range to greater than 1.0×10^4 cfu/ml in the 500 g of synthetic soil media.
5. Caps were placed on the test vessels and the vessels were stored at a temperature of 80° F. during the 5 day or more evaluation period. Note: Tests may be performed at various temperatures at the discretion of the investigator. For example, 100° F. incubation may be used to reflect very high summer temperature test environments.
6. At 24 hrs contact time, handling was in such a manner as to minimize movement of the container and sewage inside. The cap was quickly removed from the test vessel and the holding cradle containing the H2S monitor was placed over the mouth of the test vessel for 4 minutes. During the 4 minute testing period the container was maintained as still as possible. • *Note: monitor must be zeroed before each reading taken.
7. After 4 minute of testing was completed, the monitor and cradle were removed from the mouth of the vessel and the cap replaced. Peak gas readings in ppm of H2S were recorded. Steps 6 & 7 were repeated for each test vessel in set.
8. Steps (6-7) were repeated for each of the remaining contact times of 48 hrs, 72 hrs, 96 hrs, 120 hrs. It should be noted that other times could be adopted for standardization of the protocol and that these times are simply preferred. […]

The mark [1] stands for this setting: 0.78 ml/500 g synthetic soil media (8 oz per 40 gal tank), 80° F., peak head space reading, >5 ppm unacceptable.

For the compound `O=[N+]([O-])C(Br)(CO)CO` [Bronopol, 2-bromo-2-nitropropane-1,3-diol], under setting [1], the “H2S in ppm vs. contact times, 24 Hours” value is 0 ppm; the “H2S in ppm vs. contact times, 48 Hours” value was 0 ppm; the “H2S in ppm vs. contact times, 72 Hours” value turned out to be 0 ppm. In addition, the “H2S in ppm vs. contact times, 96 Hours” value (96 hours contact time, 0.78 ml/500 g synthetic soil media (8 oz per 40 gal tank), 80° F., peak head space reading, >5 ppm unacceptable) was determined as 0 ppm. In addition, the “H2S in ppm vs. contact times, 120 Hours” value (120 hours contact time, 0.78 ml/500 g synthetic soil media (8 oz per 40 gal tank), 80° F., peak head space reading, >5 ppm unacceptable) was found to be 0 ppm. The “Performance in H2S inhibition compared with the Aqua Kem control” value (over 120 hours, 0.78 ml/500 g synthetic soil media) is “The * indicates when each active had reached the unacceptable level of odor value. The two best performing actives that were equal to or near the performance of the Aqua Kem control were the Bronopol and Neolone M-10”.
Consider `C1N2CN3CN1CN(C2)C3` [Hexamethylene-Tetramine], for which, under setting [1], the “H2S in ppm vs. contact times, 24 Hours” value is 2 ppm; the “H2S in ppm vs. contact times, 48 Hours” value was found to be 2 ppm; the “H2S in ppm vs. contact times, 72 Hours” value was 48* ppm.

The values above are taken from US20080131310A1, “Methods for determining effectiveness of waste water tank deodorizers and synthetic waste compositions for use in said methods” (Fuller Brush Company, Inc., priority 2006, published 2008).
